{"source": "paper PMC11374673", "about": "“Discovery of isoquinoline sulfonamides as allosteric gyrase inhibitors with activity against fluoroquinolone-resistant bacteria” (Nature Chemistry, 2024)", "key": {"[1]": {"tested_on": "E. coli W3110 gyrA S97L, S83L, D87N", "assay": "MIC against CRISPR/Cas9 gyrA point mutants", "format": "cell-based, Escherichia coli", "settings": "for MIC: Escherichia coli", "description": "MIC was determined by broth microdilution. Single-colony cultures were grown to exponential phase (OD600 of 0.5) aerobically at 37 °C. In case of strains from the Keio collection, 50 µg ml^−1 kanamycin was supplemented to the media to ascertain a homogeneous population. The bacterial suspensions were diluted 100-fold in CAMHB and 50 µl was added to a twofold serial dilution series of test compounds (50 µl per well) in polypropylene 96-well microtitre plates to reach a volume of 100 µl. The plates were sealed with breathable membranes and incubated overnight at 37 °C with constant shaking (600 r.p.m.). The MIC was determined as the lowest concentration at which no visible bacterial growth was observed as compared with the inoculum controls from the median of a minimum of triplicates.\nMutants of the DNA gyrase subunit A encoding gene (gyrA) were constructed following the protocol for gene editing via the CRISPR–Cas9 system. Strains and plasmids used are listed in Supplementary Table 15, and primers used can be found in Supplementary Table 16. The following mutations were created: S97L in E. coli W3110. Two common mutations in the gyrA gene that give resistance to fluoroquinolone antibiotics were created in E. coli W3110, namely S83L and D87N. To create the gyrA (S97L) mutants, the construct psgRNA-gyrA-M5 was assembled as follows: The 20-nt spacer sequence was introduced by PCR on pTargetF using primers gyrA_P11 and gyrA_P12, the homology-directed repair (HDR) arms were amplified from E. coli W3110 genomic DNA by PCR using primer pairs gyrA_P05 and gyrA_P013, and gyrA_P08 and gyrA_P14. The three PCR fragments generated were cloned into the SpeI and BglII digested pTargetF via Gibson assembly. To avoid off-target effects of CRISPR, besides desired point mutation for gyrA (S97L), four other silent point mutations were also included in the HDR template. Consequently, the amino acid sequence of gyrA will remain the same in the generated mutant except for the desired mutation. Similarly, constructs psgRNA-gyrA-S83L and psgRNA-gyrA-D87N were created to introduce mutations S83L and D87N in gyrA, respectively. In psgRNA-gyrA-S83L, spacer sequence was introduced using primers gyrA_P12 and gyrA_P17, HDR template was amplified using primer pairs gyrA_P05 and gyrA_P18, and gyrA_P08 and gyrA_P19. In psgRNA-gyrA-D87N, spacer sequence was introduced using primers gyrA_P12 and gyrA_P20, HDR template was amplified using primer pairs gyrA_P05 and gyrA_P21, and gyrA_P08 and gyrA_P22. The verified constructs for gyrA engineering were transformed into E. coli W3110 carrying pCas9, and plated in LB containing kanamycin (50 µg ml^−1) for the selection of the pCas9 plasmid and spectinomycin (100 µg ml^−1) for the selection of psgRNA-gyrA-X. The plates were incubated at 30 °C. Plasmids were cured by growing the strains with 0.5 mM isopropylthiogalactoside with no antibiotics to lose first the psgRNA-gyrA plasmids. After losing the spectinomycin resistance, the strain was grown in LB with no antibiotics at 42 °C to lose the pCas plasmid. Colony PCR was performed on plasmid-free colonies using primers gyrA_P9 and gyrA_P10, and PCR products were sequenced to confirm the desired mutation"}, "[2]": {"tested_on": "E. coli W3110", "assay": "Checkerboard assay with PMBN;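 as to checkerboard plate reading, Average values: OD600 read after 20 h incubation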;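 as to checkerboard plate reading, replicate wells: OD600 read after 20 h incubation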"}}, "note": "Where “and” joins values, the source holds several entries; their conditions need not be identical. Equal entries are not always repeated."}
{"smiles": "O=S(=O)(NC[C@@H]1CC[C@H](c2ccc(-c3cccnc3)cc2)N1)c1cccc2cnccc12", "note": "[LEI-800]", "values": [{"measurement": "susceptibility of gyrA S83L / D87N mutants", "setting": "[1]", "value": "did not affect the susceptibility"}, {"measurement": "susceptibility of gyrA S97L mutant", "setting": "[1]; CRISPR–Cas9 S97L", "value": "resistant"}, {"measurement": "MIC", "setting": "[1]; E. coli W3110 gyrA D87N (FQ-resistant 2)", "value": 6.25, "unit": "µM"}, {"measurement": "MIC", "setting": "[1]; E. coli W3110 gyrA S83L (FQ-resistant 1)", "value": 6.25, "unit": "µM"}, {"measurement": "MIC", "setting": "[1]; E. coli W3110 gyrA S97L (LEI-800-resistant)", "value": "> 50", "unit": "µM"}, {"measurement": "MIC", "setting": "[2]; Escherichia coli, W3110", "value": 3.13, "unit": "µM"}, {"measurement": "checkerboard plate reading, replicate wells", "setting": "[2]; LEI-800 0.0488281 µM + PMBN 0 µM", "value": "0.6247 and 0.5887 and 0.5873"}, {"measurement": "checkerboard plate reading, Average values", "setting": "[2]; LEI-800 0.0488281 µM + PMBN 0 µM (by position)", "value": 0.6003}, {"measurement": "checkerboard plate reading, replicate wells", "setting": "[2]; LEI-800 0.0488281 µM + PMBN 0.5 µM", "value": "0.5854 and 0.5839 and 0.7031"}, {"measurement": "checkerboard plate reading, Average values", "setting": "[2]; LEI-800 0.0488281 µM + PMBN 0.5 µM (by position)", "value": 0.5871}, {"measurement": "checkerboard plate reading, replicate wells", "setting": "[2]; LEI-800 0.0488281 µM + PMBN 1 µM", "value": "0.5898 and 0.5581 and 0.551"}, {"measurement": "checkerboard plate reading, Average values", "setting": "[2]; LEI-800 0.0488281 µM + PMBN 1 µM (by position)", "value": 0.5855}, {"measurement": "checkerboard plate reading, replicate wells", "setting": "[2]; LEI-800 0.0488281 µM + PMBN 2 µM", "value": "0.674 and 0.6137 and 0.6739"}, {"measurement": "checkerboard plate reading, Average values", "setting": "[2]; LEI-800 0.0488281 µM + PMBN 2 µM (by position)", "value": 0.6241}, {"measurement": "checkerboard plate reading, replicate wells", "setting": "[2]; LEI-800 0.0488281 µM + PMBN 4 µM", "value": "0.5444 and 0.5786 and 0.5784"}, {"measurement": "checkerboard plate reading, Average values", "setting": "[2]; LEI-800 0.0488281 µM + PMBN 4 µM (by position)", "value": 0.615}, {"measurement": "checkerboard plate reading, replicate wells", "setting": "[2]; LEI-800 0.0488281 µM + PMBN 8 µM", "value": "0.315 and 0.3156 and 0.322"}, {"measurement": "checkerboard plate reading, Average values", "setting": "[2]; LEI-800 0.0488281 µM + PMBN 8 µM (by position)", "value": 0.6041}, {"measurement": "checkerboard plate reading, replicate wells", "setting": "[2]; LEI-800 0.0488281 µM + PMBN 16 µM", "value": "0.3097 and 0.3235 and 0.4832"}, {"measurement": "checkerboard plate reading, Average values", "setting": "[2]; LEI-800 0.0488281 µM + PMBN 16 µM (by position)", "value": 0.5663}, {"measurement": "checkerboard plate reading, replicate wells", "setting": "[2]; LEI-800 0.0488281 µM + PMBN 32 µM", "value": "0.3631 and 0.3487 and 0.3575"}, {"measurement": "checkerboard plate reading, Average values", "setting": "[2]; LEI-800 0.0488281 µM + PMBN 32 µM (by position)", "value": 0.6049}, {"measurement": "checkerboard plate reading, replicate wells", "setting": "[2]; LEI-800 0.0976562 µM + PMBN 0 µM", "value": "0.5677 and 0.5498 and 0.5376"}, {"measurement": "checkerboard plate reading, Average values", "setting": "[2]; LEI-800 0.0976562 µM + PMBN 0 µM (by position)", "value": 0.5517}, {"measurement": "checkerboard plate reading, replicate wells", "setting": "[2]; LEI-800 0.0976562 µM + PMBN 0.5 µM", "value": "0.5272 and 0.5363 and 0.6045"}, {"measurement": "checkerboard plate reading, Average values", "setting": "[2]; LEI-800 0.0976562 µM + PMBN 0.5 µM (by position)", "value": 0.5382}, {"measurement": "checkerboard plate reading, replicate wells", "setting": "[2]; LEI-800 0.0976562 µM + PMBN 1 µM", "value": "0.5455 and 0.5265 and 0.5304"}, {"measurement": "checkerboard plate reading, Average values", "setting": "[2]; LEI-800 0.0976562 µM + PMBN 1 µM (by position)", "value": 0.5337}, {"measurement": "checkerboard plate reading, replicate wells", "setting": "[2]; LEI-800 0.0976562 µM + PMBN 2 µM", "value": "0.528 and 0.523 and 0.4812"}, {"measurement": "checkerboard plate reading, Average values", "setting": "[2]; LEI-800 0.0976562 µM + PMBN 2 µM (by position)", "value": 0.556}, {"measurement": "checkerboard plate reading, replicate wells", "setting": "[2]; LEI-800 0.0976562 µM + PMBN 4 µM", "value": "0.3324 and 0.3512 and 0.3333"}, {"measurement": "checkerboard plate reading, Average values", "setting": "[2]; LEI-800 0.0976562 µM + PMBN 4 µM (by position)", "value": 0.5558}, {"measurement": "checkerboard plate reading, replicate wells", "setting": "[2]; LEI-800 0.0976562 µM + PMBN 8 µM", "value": "0.2503 and 0.2429 and 0.246"}, {"measurement": "checkerboard plate reading, Average values", "setting": "[2]; LEI-800 0.0976562 µM + PMBN 8 µM (by position)", "value": 0.5538}, {"measurement": "checkerboard plate reading, replicate wells", "setting": "[2]; LEI-800 0.0976562 µM + PMBN 16 µM", "value": "0.2399 and 0.265 and 0.2959"}, {"measurement": "checkerboard plate reading, Average values", "setting": "[2]; LEI-800 0.0976562 µM + PMBN 16 µM (by position)", "value": 0.5341}, {"measurement": "checkerboard plate reading, replicate wells", "setting": "[2]; LEI-800 0.0976562 µM + PMBN 32 µM", "value": "0.2697 and 0.2568 and 0.2475"}, {"measurement": "checkerboard plate reading, Average values", "setting": "[2]; LEI-800 0.0976562 µM + PMBN 32 µM (by position)", "value": 0.5346}, {"measurement": "checkerboard plate reading, Average values", "setting": "[2]; LEI-800 0.195312 µM + PMBN 0 µM (by position)", "value": 0.5248}, {"measurement": "checkerboard plate reading, Average values", "setting": "[2]; LEI-800 0.195312 µM + PMBN 0.5 µM (by position)", "value": 0.5135}, {"measurement": "checkerboard plate reading, Average values", "setting": "[2]; LEI-800 0.195312 µM + PMBN 1 µM (by position)", "value": 0.5141}, {"measurement": "checkerboard plate reading, Average values", "setting": "[2]; LEI-800 0.195312 µM + PMBN 2 µM (by position)", "value": 0.5165}, {"measurement": "checkerboard plate reading, Average values", "setting": "[2]; LEI-800 0.195312 µM + PMBN 4 µM (by position)", "value": 0.4968}, {"measurement": "checkerboard plate reading, Average values", "setting": "[2]; LEI-800 0.195312 µM + PMBN 8 µM (by position)", "value": 0.478}, {"measurement": "checkerboard plate reading, Average values", "setting": "[2]; LEI-800 0.195312 µM + PMBN 16 µM (by position)", "value": 0.4685}, {"measurement": "checkerboard plate reading, Average values", "setting": "[2]; LEI-800 0.195312 µM + PMBN 32 µM (by position)", "value": 0.4392}]}
